Measured values taken from patent US8765098B2, “Star polymers, methods of preparation thereof, and uses thereof” (International Business Machines Corporation, priority 2010, dated 2014).

Test: Appearance of aqueous mixtures of star polymer, dye alone and loaded star polymers (FIG. 10)
Type: physicochemical
Conditions: in water, FIG. 10 vials A-D
Procedure: The solution was added drop-wise to water (0.9 mL) with rapid stirring, causing the water to rapidly and uniformly color from the dye. Excess solid dye material not adsorbed to the star polymer was removed by passing the mixture through a 0.2 micrometer syringe filter, thereby forming a clear and uniformly colored aqueous solution. The further addition of water had no visible effect on the homogeneity of the solution.
FIG. 10 is a photograph of four aqueous mixtures. […] The vial labeled C is an aqueous mixture of 5,10,15,20-(3,5-ditertbutylphenyl)porphyrin (M=2H) (DTBP) alone in water.

For `CC(C)(C)c1cc(-c2c3nc(c(-c4cc(C(C)(C)C)cc(C(C)(C)C)c4)c4ccc([nH]4)c(-c4cc(C(C)(C)C)cc(C(C)(C)C)c4)c4nc(c(-c5cc(C(C)(C)C)cc(C(C)(C)C)c5)c5ccc2[nH]5)C=C4)C=C3)cc(C(C)(C)C)c1` [DTBP, 5,10,15,20-(3,5-ditertbutylphenyl)porphyrin (M=2H)], the “appearance of aqueous solution / mixture” value was “clear and colorless”.
